Measurements from patent US10711000B2 (Fronthera U.S. Pharmaceuticals LLC, priority 2018, dated 2020).

Columns and labels:
[1] = target: T1, Autotaxin (Rattus norvegicus, UniProt Q64610); test: Pharmacodynamics: LPA 18:2 inhibition in plasma of SD rats after oral dose; conditions: single oral dose, LPA18:2 inhibition vs plasma concentration of compound, read-out: In vivo rat IC50 (LPA 18:2) (converted)
T1 construct: from tissue; host or cells: SD rats in vivo; plasma sampled after a single oral dose
Description: (§1) The pharmacokinetics and pharmacodynamics of test compounds after a single oral dose were investigated in SD rats, Beagle dog and Cynomolgus monkey. SD Rats (200-250 g) were purchased from Beijing Vital River Laboratory Animal Technology Co., Ltd. Male Beagle Dog, 6-9 kg, were purchased from Beijing Mashall. Male Cynomolgus monkeys, 3-5 kg, were purchased from Suzhou Xishan Zhongke Drugs Research and Development Co., Ltd. Following arrival, the animals were acclimated for 7 days in individual cages maintained at ambient temperature, 34 to 68% relative humidity, and 12-h light/dark cycles. Just prior to dose administration the rats were fasted overnight with free access to water. Animals were given 10 mL/kg of formulated compound in 0.5% methylcellulose (MC) by oral gavage, and the animals were fed four hours after dosing. The animals were manually restrained at the designated time points (pre-dose, 0.5, 1, 3, 6, 9, 12, and 24 h post-dose) to collect blood. Approximately 120 μL of blood was collected via orbital sinus into K2EDTA tubes. The blood samples were centrifuged at 5000 rpm for 10 min at 4° C. to obtain plasma samples.
Autotaxin is a secreted phosphodiesterase that converts lysophosphatidylcholine (LPC) into lysophosphatidic acid (LPA), and LPA 18:2 formation was used to evaluate the efficacy of autotaxin inhibitors. Therefore, the LPA 18:2 formation in response to drug administration was analyzed in each time point to assess the pharmacodynamics of test compounds. To determine the LPA18:2 concentration in study plasma, a 10× calibration standard of LPA 18:2 were prepared by serial dilution in butyl alcohol: 20000, 10000, 5000, 2000, 1000, 500, 200, 100, 50, 20, and 10 ng/mL. 3 μL of calibration standard solution was added into 27.0 μL of blank plasma in 1.5-mL microcentrifuge tubes to generate 1× calibration standards. The 30.0 μL of standards or study plasma was added into 1.5-mL microcentrifuge tubes. 200 μL of butyl alcohol (containing 25.0 ng/mL LPA17:0 for internal control) was added into each 1.5-mL microcentrifuge tube containing study plasma or calibration standards. After vortexing for 1 minute and centrifuging at 10000 rpm for 10 min, 180 μL of supernatant was transferred into a 96-well plate and the LPA18:2 concentration in the plasma was quantitated using LC/MS/MS together with standards. Briefly, 8 μL of the solutions were injected for LC-MS/MS analysis using an ACQUITY UPLC BEH C18 column (2.1×50 mm, 1.7 μm) with mobile phase A [20 mM NH4OAC in water (0.1% FA)] and phase B [5 mM NH4OAC in water/0.2% FA in ACN=5:95]. Mass spectrometer parameters optimization for LPA18:2 were performed by infusing standard diluted at 1 μg/mL in butyl Alcohol directly in the ionization source, at a flow of 10 μL/min. Deprotonated molecular ion at m/z 433.2 ([M−H]−) for LPA18:2, and abundant product ion at m/z 152.8 for LPA18:2 were obtained. Quantitative data were acquired in multiple reaction monitoring (MRM) negative electrospray ionization mode
The percentage of LPA18:2 inhibition was plotted against the corresponding concentration of compound and the IC50 was calculated through non-linear regression fitting.

[2] = Pharmacokinetics in beagle dogs; type: in vivo; conditions: male, dog, plasma, po, P.O. (1 mg/kg)
Description: as §1
(§2) To determine the compound concentration in the plasma samples, a 10× calibration standard of compound were prepared by serial dilution in DMSO: 20000, 10000, 5000, 2000, 1000, 500, 200, 100, 50, 20, and 10 ng/mL. 3 μL of calibration standard solution was added into 27.0 μL of blank plasma in 1.5-mL microcentrifuge tubes to generate 1× calibration standards. The 30.0 μL of standards or study plasma was mixed with 200 μL of acetonitrile (containing 5 ng/mL verapamil for internal control) in a 1.5-mL microcentrifuge tube. After vertexing for 1 minute and centrifuging at 10000 rpm for 10 min, 180 μL of supernatant was transferred into a 96-well plate and the compound concentration in the plasma was quantitated using LC/MS/MS together with standards. Briefly, 1 μL of the solutions were injected for LC-MS/MS analysis using an Agilent Zorbax C18 column (50×2.1 mm, 3.5 μm) with mobile phase A [5 mM NH4Ac (0.1% FA)] and phase B [Methanol (0.1% FA)]. Mass spectrometer parameters optimization for compound was performed by infusing standard diluted at 1 μg/mL in water/methanol (1/1, v/v) directly in the ionization source at a flow of 10 μL/min. Quantitative data were acquired in multiple reaction monitoring (MRM) positive APCI mode.

[3] = Pharmacokinetics in cynomolgus monkeys; type: in vivo; conditions: male, cynomolgus monkey, plasma, po, P.O. (1 mg/kg)
Description: as §1, §2

[4] = Metabolic stability in human hepatocytes; type: in vitro ADME; conditions: cryopreserved human hepatocytes 0.5 million/mL, compound 1 μM
Experimental: The metabolic stability was examined in cryopreserved human hepatocytes. Compound (1 μM) was mixed with human hepatocytes at 0.5 million/mL, and a small aliquot was taken at 0, 15, 30, 60 and 90 minutes for LC/MS/MS analysis. Intrinsic clearance and half-time were calculated.

[5] = Pharmacokinetics in cynomolgus monkeys; type: in vivo; conditions: male, cynomolgus monkey, plasma, iv, I.V. (1 mg/kg)

Row | IC50 [1] [nM] | AUC [2] [ng·h/mL] | Cmax [2] [ng/mL] | bioavailability [2] [%] | half-life [2] [h] | AUC [3] [ng·h/mL] | Cmax [3] [ng/mL] | bioavailability [3] [%] | half-life [3] [h] | metabolic stability (halftime in minutes), Human [4] [min] | AUC [5] [ng·h/mL] | C0 [5] [ng/mL] | clearance [5] [mL/min/kg] | half-life [5] [h] | Structure (SMILES)
1 | 8.64 | 4020 ± 549 | 425 ± 68 | 36.1 ± 4.9 | 4.69 ± 0.17 | 1380 ± 904 | 239 ± 119 | 35.6 ± 22 | 2.49 ± 0.54 | >216.8 | 1990 ± 92 | 1220 ± 166 | 8.21 ± 0.38 | 1.82 ± 0.1 | CCc1nn2cc(F)c(N3CCN(CC(=O)N4CC(O)C4)CC3)cc2c1N(C)c1nc(-c2ccc(F)cc2)c(C#N)s1 [Example 101, 2-[[2-ethyl-6-fluoro-5-[4-[2-(3-hydroxyazetidin-1-yl)-2-oxo-ethyl]piperazin-1-yl]pyrazolo[1,5-a]pyridin-3-yl]-methyl-amino]-4-(4-fluorophenyl)thiazole-5-carbonitrile]
2 | 12.5 | 900 ± 305 | 165 ± 40 | 40.7 ± 14 | 3.99 ± 0.89 | 153 ± 10 | 28 ± 3 | 2.9 ± 0.19 | 2.63 ± 0.85 | >216.8 | 2640 ± 473 | 993 ± 8.6 | 6.06 ± 1.2 | 6.59 ± 1.5 | CCn1nc2ncc(N3CC4(CN(C(=O)C5CCOCC5)C4)C3)cc2c1N(C)c1nc(-c2ccc(F)cc2)c(C#N)s1 [Compound 118, 2-((2-ethyl-5-(6-(tetrahydro-2H-pyran-4-carbonyl)-2,6-diazaspiro[3.3]heptan-2-yl)-2H-pyrazolo[3,4-b]pyridin-3-yl)(methyl)amino)-4-(4-fluorophenyl)thiazole-5-carbonitrile]
3 | 48.3 | 5760 ± 672 | 1130 ± 229 | 66.2 ± 7.5 | 3.04 ± 0.77 | 244 ± 118 | 72.6 ± 38 | 4.51 ± 2.1 | 1.82 ± 0.63 | 117.9 | 2770 ± 246 | 4210 ± 1150 | 6.02 ± 0.51 | 1.41 ± 0.19 | CCc1nc2c(C)cc(N3CCN(CC(=O)N4CC(O)C4)CC3)cn2c1N(C)c1nc(-c2ccc(F)cc2)c(C#N)s1 [GLPG1690]
4 | 8.85 | 2190 ± 325 | 192 ± 26 | 33.9 ± 5 | 20.4 ± 6.1 |  |  |  |  | 76.6 |  |  |  |  | CCc1nn2cc(F)c(N3CC4(CN(C(=O)[C@H]5CCOC5)C4)C3)cc2c1N(C)c1nc(-c2ccc(F)cc2)c(C#N)s1 [Example 102, 2-[[2-ethyl-6-fluoro-5-[2-[(3S)-tetrahydrofuran-3-carbonyl]-2,6-diazaspiro[3.3]heptan-6-yl]pyrazolo[1,5-a]pyridin-3-yl]-methyl-amino]-4-(4-fluorophenyl)thiazole-5-carbonitrile]
